Data: PubChem BioAssay AID1996
Values after ≈ are worked out from the molar mass of the structure shown.

conditions: buffer; pH 7.4; 200.0 µM

Structure (SMILES)	solubility kinetic [µg/mL]
N#Cc1ccc(NC(=O)CN2CCN(c3ccccn3)CC2)cc1	16.4 (≈ 51 µM)
CCN(CC)c1nc(N2CCN(C)CC2)nc2ccccc12.Cl	50.1
CC1CCCC(C)N1C(=S)SCC(=O)O (stereo unspecified)	> 37.1
CCN(CC(=O)NCc1ccc(F)cc1)CC(=O)NC1CCCC1	> 50.3
O=C(COC(=O)c1ccc(S(=O)(=O)N2CCOCC2)cc1)Nc1ccccc1OC(F)F	4.8 (≈ 10.2 µM)
Cc1ccc(C(=O)OCC(=O)NC2CCCC2)cc1C	15.8 (≈ 57.4 µM)
Nc1ccc(C(=O)OCC(=O)Nc2cccc(S(=O)(=O)NC3=NCCCCC3)c2)cc1[N+](=O)[O-]	4.7 (≈ 9.6 µM)
O=C1C2C3C=CC(CC3)C2C(=O)N1c1ccccc1F (stereo unspecified)	19.6 (≈ 72.2 µM)
COn1c(-c2ccc(C)cc2)nc2ncccc21	> 35.9
Cc1csc(Nc2ccc(C(=O)O)cc2)n1	> 35.1
O=C1CCC(=O)N1c1ccccc1	> 26.3
CN(c1ccccc1)c1nc(N)c([N+](=O)[O-])c(NCCO)n1	42.9 (≈ 141 µM)
O=C(Nc1ccccc1Br)c1c(F)cccc1Cl	13.5 (≈ 41.1 µM)
COc1ccccc1C(=O)COC(=O)c1ccc(N(C)C)cc1	1.1 (≈ 3.51 µM)
NC(=O)c1c(NC(=O)c2ccccc2)sc2c1CCCC2	0.8 (≈ 2.66 µM)
CC1(C)Cc2ccccc2/C(=C/C(=O)c2ccccc2)N1	< 0.6
O=C(COC(=O)c1cc(=O)[nH]c2ccccc12)NCc1cccs1	> 51.4
COc1cccc(C(=O)Nc2cccc(NC(=O)c3cccs3)c2)c1	13.5 (≈ 38.3 µM)
CC(C)NC(=O)c1cc2c(=O)n3ccccc3nc2s1	< 0.2
COc1ccc(CNC(=O)c2sc(=S)n(-c3ccccc3)c2N)cc1	0.7 (≈ 1.88 µM)
COc1ccc(S(=O)(=O)N2CCOCC2)cc1NC(=O)CN1CCCc2ccccc21	2.9 (≈ 6.51 µM)

Structure (SMILES)	solubility kinetic [µg/mL]
CCOC(=O)N1CCN(CCC(=O)Nc2ccc(F)c(F)c2)CC1	> 51.2
CCN(CC)c1c([N+](=O)[O-])c(=O)oc2ccccc12	> 39.3
O=[N+]([O-])c1cccc(S(=O)(=O)NCc2ccccn2)c1	41.2 (≈ 140 µM)
N#CCc1cc2ccc3cccc4ccc(c1)c2c34	< 0.5
O=C(NC1CCCCC1)[C@@H]1CSC2c3ccccc3C(=O)N21 (stereo partly specified)	47 (≈ 149 µM)
CCOc1ccccc1NC(=O)COC(=O)CN1C(=O)NC(C)(C)C1=O	> 54.5
CN1CCC(N(C)C(=O)c2cc(S(=O)(=O)N3CCOCC3)ccc2Cl)CC1.Cl	> 67.9
O=C(CCl)Nc1cccc(Oc2cnccn2)c1	39.4 (≈ 149 µM)
Cl.c1ccc2c(c1)nc1n2CCN1CCN1CCCC1	> 49.4
Oc1ccc(Cl)cc1C=Nc1ccc(Br)cc1	21.4 (≈ 68.9 µM)
CCc1noc(C)c1C(=O)Nc1nc(-c2cccs2)cs1	19.3 (≈ 60.4 µM)
CC(=O)Nc1ccc(NC(=O)c2ccc(-c3ccccc3Cl)o2)cc1	0.5 (≈ 1.41 µM)
C=CCn1c(NCc2ccccc2O)nc2ccccc21	2.4 (≈ 8.59 µM)
CCCCN(C1CCS(=O)(=O)C1)S(=O)(=O)c1ccc(C(C)C)cc1 (stereo unspecified)	1.9 (≈ 5.09 µM)
CC(C)C(=O)Nc1ccc(N2CCOCC2)c(S(=O)(=O)Nc2ccccc2Cl)c1	2.8 (≈ 6.39 µM)
COc1ccccc1NC(=O)Nc1ccc(C)cn1	0.8 (≈ 3.11 µM)
O=C(NCCN1CCOCC1)NC1(C(F)(F)F)Oc2ccc(Cl)cc2O1 (stereo unspecified)	> 59.4
O=C(CN1CCN(Cc2ccccc2)CC1)Nc1ccccc1	> 46.4
O=c1[nH]c(=S)[nH]c2nc(-c3ccccc3)cnc12	> 38.4
COc1cc(NC(=S)Nc2ccc3c(c2)OCCO3)cc(OC)c1OC	> 56.5
Nc1ccccc1SC1CC(=O)N(c2ccc3c(c2)OCO3)C1=O (stereo unspecified)	< 0.4

Structure (SMILES)	solubility kinetic [µg/mL]
Cc1c(/C=N/O)c2ccccn2c1C(=O)c1ccc(F)cc1	5.5 (≈ 18.6 µM)
Cc1ccc2nc(NCc3ccccc3)c(C#N)cc2c1	2.8 (≈ 10.2 µM)
CCCCCCCCCCCCCCCC(=O)OC(CC(=O)O)C[N+](C)(C)C.[Cl-] (stereo unspecified)	4.5
CCC(C)n1c(O)c(C=NCC2CCCO2)c(=O)[nH]c1=S (stereo unspecified)	38.3 (≈ 123 µM)
COC(=O)c1oc(-c2ccccc2)nc1C	15.6 (≈ 71.8 µM)
Cc1[nH]c2ccc(C(=O)N3CCC(C(N)=O)CC3)cc2c1C	> 44.9
Nc1ccccc1N1C(=O)c2cccc3cccc(c23)C1=O	4.3 (≈ 14.9 µM)
CC1CC(C)CN(S(=O)(=O)c2ccc3oc(=O)ccc3c2)C1 (stereo unspecified)	14 (≈ 43.6 µM)
S=c1nc(COc2ccccc2)[nH]c2ccccc12	8 (≈ 29.8 µM)
O=C(NCc1ccccc1)c1cc2ccccc2oc1=O	2.7 (≈ 9.67 µM)
CC(=O)c1cccc(N=Cc2c(O)ccc3ccccc23)c1	2.3 (≈ 7.95 µM)
COc1ccc(OC)c(Nc2nc(NCc3ccco3)nc(N)c2[N+](=O)[O-])c1	< 0.1
CCOC(=O)COc1cccc2c(=O)n(CC(N)=O)ccc12	24.4 (≈ 80.2 µM)
O=C(NCCCO)C(=O)c1c(-c2ccccc2)cc2ccccn12	> 48.4
CCCN1CCC(NC(=S)Nc2ccc(OC)c(OC)c2)CC1	> 50.6
NC(=O)C1c2ccccc2Oc2ccccc21	24.8 (≈ 110 µM)
CN(C(=O)COC(=O)CNC(=O)c1sc2ccccc2c1Cl)C1CCS(=O)(=O)C1 (stereo unspecified)	> 68.8
Cc1ccc(C(OCC(O)CN2CCCCC2)c2ccccc2)cc1 (stereo unspecified)	40.2 (≈ 118 µM)
CCC(CC)C(=O)Nc1ccncc1	10.9 (≈ 56.7 µM)
